± gives the expanded uncertainty stated by the source.
Legend:
[1] = refractive index (Na D-line) (dimensionless); xn = mol fraction of the nth substance listed; settings: 293.15 K; 99.6 kPa; Liquid; Standard Abbe refractometry; x1 = 0.5
[2] = xn = mol fraction of the nth substance listed; settings: 99.6 kPa, Liquid, x1 = 0.5; for viscosity: Concentric cylinders viscometry; for mass density: Vibrating tube method

For `CCCCn1cc[n+](C)c1.CS(=O)(=O)[O-]` [1-butyl-3-methylimidazolium methanesulfonate] + NC(N)=O, the refractive index [1] was 1.493 ± 0.001, the viscosity ([2]; 293.15 K) was 1892.9 ± 93 mPa·s and the mass density ([2]; 293.15 K) was 1202.2 ± 1.2 kg/m3. It also gave a viscosity ([2]; 303.15 K) of 686.69 ± 25 mPa·s, a mass density ([2]; 303.15 K) of 1195.6 ± 1.2 kg/m3 and a viscosity ([2]; 313.15 K) of 295.72 ± 7.4 mPa·s. It also gave a mass density ([2]; 313.15 K) of 1189.2 ± 1.2 kg/m3, a viscosity ([2]; 323.15 K) of 145.85 ± 2.3 mPa·s and a mass density ([2]; 323.15 K) of 1182.7 ± 1.2 kg/m3. The viscosity ([2]; 333.15 K) was 80.41 ± 0.74 mPa·s and the mass density ([2]; 333.15 K) was 1176.3 ± 1.2 kg/m3.
